According to PubChem BioAssay AID1918936 (Molecular Pharmacology Branch, DTP, NCI, 2023):

System: 349418-098-R-PDC complex spheroid viability
Assay: Anticancer human tumor 349418-098-R-PDC patient-derived lung adenocarcinoma cell line growth inhibition
Settings: for IC50: curve of first compound; for viability, T/C: stronger effect = lower value
Source text: Multicellular complex tumor spheroid response to LSD1 Inhibitor Iadademstat in combination with a variety of drugs and investigational agents in selected tumor cell lines
The current study was undertaken to assess response to LSD1 inhibitors in combination with standard-of-care drugs and investigational agents in solid tumor complex spheroid models as well as in the K-562 leukemia. Complex spheroids include a stromal component modeled by human endothelial cells (HUVEC) and fibroblasts modeled by human mesenchymal stem cells (MSCs). The concentration ranges selected for each drug and investigational agent were based upon clinically achievable concentrations if the clinical Cmax of the agent was known.
Compounds. The drugs and investigational agents used in this study are listed on Table 1. All of the agents used, including staurosporine (NSC755774) and gemcitabine (NSC613327), were obtained from the Developmental Therapeutics Program, NCI. FDA-approved anticancer drugs are available from the NCI at http://dtp.nci.nih.gov/branches/dscb/oncology_drugset_explanation.html. Drugs and investigational agents were >95% pure by proton nuclear magnetic resonance (NMR) and liquid chromatography/mass spectrometry (LC/MS). Stock solutions were prepared at 400x in DMSO, stored at -70 degrees C, and diluted in fresh medium prior to their use. The final concentration of DMSO in cell culture wells never exceeded 0.25% (v/v). The FDA-approved anticancer drug set is available from the Developmental Therapeutics Program at https://dtp.cancer.gov/organization/dscb/obtaining/available_plates.htm. All drugs and investigational agents were tested over a range starting from a high concentration at or near the clinical Cmax and decreasing in half-log increments. If the clinical Cmax for an agent had not been determined, the highest concentration tested was 10 microM.
Cell Lines. The patient-derived cancer cell (PDC) lines: 292921-168-R-J2-PDC, K24384-001-R-PDC, and 521955-158-R2-J5-PDC pancreatic carcinomas, 556581-035-R-J1 ovarian carcinoma, 324938-238-R-J1-PDC, 855422-203-R-J1-PDC and 883617-216-R-J1-PDC urothelial bladder carcinomas, 743489-274-T-PDC renal cell carcinoma, 138582-R-J1 Merkel cell tumor, K60290-347-R-J1 and K57222-313-R-J1-PDC glioblastomas, 653999-131-R-J2-PDC, LG0703-F948-PDC, and 349418-098-R-PDC non-small cell lung carcinomas, 885512-296-R-J2-PDC, 171881-019-R-J1-PDC breast carcinomas and 186277-243-T-J2-PDC and 233499-124-R-J2-PDC colon carcinomas were obtained from the NCI Patient-Derived Models Repository (PDMR, https://pdmr.cancer.gov). The established cell lines NCI/ADR-RES (RRID:CVCL_14520 and OVCAR-5 (RRID:CVCL_1628) ovarian carcinomas, 786-O (RRID:CVCL_1051) and A498 (RRID:CVCL_A498) renal cell carcinoma, NCI-H211 (ATCC, cat. CRL-5824; RRID:CVCL_1529), NCI-H196 (ATCC, cat. CRL-5823, RRID:CVCL_1509), SW 1271 (ATCC, cat. CRL-2177, RRID:CVCL_1716) and NCI-H1876 (ATCC, cat. CRL-5902, RRID:CVCL_1503) small cell lung carcinomas, MDA-MB-231 (RRID:CVCL_0062) and MDA-MB-468 (RRID:CVCL_0419)breast carcinomas (10-12). Pooled donor human umbilical vein endothelial cells (HUVEC, Lonza, cat. CC-2519) and human mesenchymal stem cells (hMSC, Lonza, cat. PT-2501) were purchased from Lonza (Walkersville, MD).
Cell Culture. All cells were maintained in an incubator at 37 degrees C and 5% CO2 with 95% humidity. The PDC lines were cultured according to standard operating procedures established by the NCI PDMR (https://pdmr.cancer.gov). Briefly all PDCs were thawed and cultured in Matrigel-coated flasks prepared with a working solution of 1X Ham's F-12 nutrient mix, without supplementation (Invitrogen, Waltham, MA, cat. 11765054), 100 U/mL penicillin-streptomycin (Invitrogen, cat. 15140122), and 2.5% Matrigel (Corning Inc., Corning, NY, cat. 354248) for the first three passages. […]

[1] = second compound 0.1 µM, first compound 0.0316 µM
[2] = second compound 0.1 µM, first compound 0.1 µM
[3] = second compound 0.1 µM, first compound 0.316 µM
[4] = second compound 0.1 µM, first compound 1 µM
[5] = second compound 0.1 µM, first compound 3.16 µM
[6] = second compound 0.1 µM, first compound 10 µM
[7] = second compound 0.316 µM, first compound 0.0316 µM
[8] = second compound 0.316 µM, first compound 0.1 µM
[9] = second compound 0.316 µM, first compound 0.316 µM
[10] = second compound 0.316 µM, first compound 1 µM
[11] = second compound 0.316 µM, first compound 3.16 µM
[12] = second compound 0.316 µM, first compound 10 µM
[13] = second compound 1 µM, first compound 0.0316 µM
[14] = second compound 1 µM, first compound 0.1 µM
[15] = second compound 1 µM, first compound 0.316 µM
[16] = second compound 1 µM, first compound 1 µM
[17] = second compound 1 µM, first compound 3.16 µM
[18] = second compound 1 µM, first compound 10 µM
[19] = second compound 3.16 µM, first compound 0.0316 µM
[20] = second compound 3.16 µM, first compound 0.1 µM
[21] = second compound 3.16 µM, first compound 0.316 µM
[22] = second compound 3.16 µM, first compound 1 µM
[23] = second compound 3.16 µM, first compound 3.16 µM
[24] = second compound 3.16 µM, first compound 10 µM
[25] = second compound 10 µM, first compound 0.0316 µM
[26] = second compound 10 µM, first compound 0.1 µM
[27] = second compound 10 µM, first compound 0.316 µM
[28] = second compound 10 µM, first compound 1 µM
[29] = second compound 10 µM, first compound 3.16 µM
[30] = second compound 10 µM, first compound 10 µM
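Further: spheroids exposed to agents for seven days before readout.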
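Wherever viability, T/C is given: 100% = DMSO vehicle control wells.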

## CC1COCCN1c1cc(C2(S(C)(=N)=O)CC2)nc(-c2ccnc3[nH]ccc23)n1 (stereo not given) + NC1CC1c1ccc(-c2cccc(O)c2)cc1
Second compound 0.1 µM
  IC50: 1050 nM
Second compound 0.316 µM
  IC50: 1020 nM
Second compound 1 µM
  IC50: 931 nM
Second compound 3.16 µM
  IC50: 1070 nM
Second compound 10 µM
  IC50: 709 nM
[1]
  viability, T/C: 114%
[2]
  viability, T/C: 113%
[3]
  viability, T/C: 111%
[4]
  viability, T/C: 51.8%
[5]
  viability, T/C: 11.8%
[6]
  viability, T/C: 10.9%
[7]
  viability, T/C: 120%
[8]
  viability, T/C: 111%
[9]
  viability, T/C: 104%
[10]
  viability, T/C: 51.2%
[11]
  viability, T/C: 11.5%
[12]
  viability, T/C: 9.93%
[13]
  viability, T/C: 115%
[14]
  viability, T/C: 116%
[15]
  viability, T/C: 115%
[16]
  viability, T/C: 45.6%
[17]
  viability, T/C: 13.9%
[18]
  viability, T/C: 10.7%
[19]
  viability, T/C: 118%
[20]
  viability, T/C: 103%
[21]
  viability, T/C: 115%
[22]
  viability, T/C: 52.3%
[23]
  viability, T/C: 13.3%
[24]
  viability, T/C: 9.27%
[25]
  viability, T/C: 91.3%
[26]
  viability, T/C: 94.1%
[27]
  viability, T/C: 86.6%
[28]
  viability, T/C: 34.3%
[29]
  viability, T/C: 11.2%
[30]
  viability, T/C: 6.83%

## COc1ccc([C@@H](O)c2cc(-c3ncnc4cc(N5CCOCC5)ccc34)c(F)cc2Cl)nn1 + NC1CC1c1ccc(-c2cccc(O)c2)cc1
Second compound 0.1 µM
  IC50: 696 nM
Second compound 0.316 µM
  IC50: 741 nM
Second compound 1 µM
  IC50: 644 nM
Second compound 3.16 µM
  IC50: 547 nM
Second compound 10 µM
  IC50: 185 nM
[1]
  viability, T/C: 96.6%
[2]
  viability, T/C: 88.1%
[3]
  viability, T/C: 71.4%
[4]
  viability, T/C: 42.1%
[5]
  viability, T/C: 10.1%
[6]
  viability, T/C: 3.99%
[7]
  viability, T/C: 104%
[8]
  viability, T/C: 93.8%
[9]
  viability, T/C: 87.7%
[10]
  viability, T/C: 36.8%
[11]
  viability, T/C: 8.34%
[12]
  viability, T/C: 3.86%
[13]
  viability, T/C: 106%
[14]
  viability, T/C: 91.9%
[15]
  viability, T/C: 75%
[16]
  viability, T/C: 36.2%
[17]
  viability, T/C: 7.37%
[18]
  viability, T/C: 4.08%
[19]
  viability, T/C: 94.8%
[20]
  viability, T/C: 83.5%
[21]
  viability, T/C: 67.9%
[22]
  viability, T/C: 32.1%
[23]
  viability, T/C: 6.81%
[24]
  viability, T/C: 4.07%
[25]
  viability, T/C: 71.7%
[26]
  viability, T/C: 62.7%
[27]
  viability, T/C: 38.1%
[28]
  viability, T/C: 21.9%
[29]
  viability, T/C: 4.81%
[30]
  viability, T/C: 3.46%

## COc1ccc([C@@H](O)c2cc(-c3ncnc4cc(N5CCOCC5)ccc34)c(F)cc2Cl)nn1 + NC1CCC(NC2CC2c2ccccc2)CC1
Second compound 0.1 µM
  IC50: 423 nM
Second compound 0.316 µM
  IC50: 471 nM
Second compound 1 µM
  IC50: 468 nM
Second compound 3.16 µM
  IC50: 520 nM
Second compound 10 µM
  IC50: 299 nM
[1]
  viability, T/C: 102%
[2]
  viability, T/C: 109%
[3]
  viability, T/C: 52.1%
[4]
  viability, T/C: 30.2%
[5]
  viability, T/C: 8.02%
[6]
  viability, T/C: 5.61%
[7]
  viability, T/C: 112%
[8]
  viability, T/C: 95.1%
[9]
  viability, T/C: 63.3%
[10]
  viability, T/C: 26.6%
[11]
  viability, T/C: 8.83%
[12]
  viability, T/C: 6.71%
[13]
  viability, T/C: 122%
[14]
  viability, T/C: 102%
[15]
  viability, T/C: 60.6%
[16]
  viability, T/C: 28.4%
[17]
  viability, T/C: 10.5%
[18]
  viability, T/C: 6.33%
[19]
  viability, T/C: 102%
[20]
  viability, T/C: 102%
[21]
  viability, T/C: 66.4%
[22]
  viability, T/C: 27%
[23]
  viability, T/C: 10.9%
[24]
  viability, T/C: 5.88%
[25]
  viability, T/C: 98.1%
[26]
  viability, T/C: 78.8%
[27]
  viability, T/C: 48.2%
[28]
  viability, T/C: 23.5%
[29]
  viability, T/C: 9.1%
[30]
  viability, T/C: 5.47%

## Nc1ccn(C2OC(CO)C(O)C2(F)F)c(=O)n1 (stereo not given) + NC1CCC(NC2CC2c2ccccc2)CC1
Second compound 0.1 µM
  IC50: < 0.949 nM
Second compound 0.316 µM
  IC50: < 0.949 nM
Second compound 1 µM
  IC50: < 0.949 nM
Second compound 3.16 µM
  IC50: < 0.949 nM
Second compound 10 µM
  IC50: < 0.949 nM
Second compound 0.1 µM, first compound 0.000949 µM
  viability, T/C: 4.87%
Second compound 0.1 µM, first compound 0.003 µM
  viability, T/C: 4.56%
Second compound 0.1 µM, first compound 0.00949 µM
  viability, T/C: 4.21%
Second compound 0.1 µM, first compound 0.03 µM
  viability, T/C: 3.79%
Second compound 0.1 µM, first compound 0.0949 µM
  viability, T/C: 4%
Second compound 0.1 µM, first compound 0.3 µM
  viability, T/C: 3.98%
Second compound 0.316 µM, first compound 0.000949 µM
  viability, T/C: 4.61%
Second compound 0.316 µM, first compound 0.003 µM
  viability, T/C: 4.85%
Second compound 0.316 µM, first compound 0.00949 µM
  viability, T/C: 4.32%
Second compound 0.316 µM, first compound 0.03 µM
  viability, T/C: 4.15%
Second compound 0.316 µM, first compound 0.0949 µM
  viability, T/C: 4.03%
Second compound 0.316 µM, first compound 0.3 µM
  viability, T/C: 3.47%
Second compound 1 µM, first compound 0.000949 µM
  viability, T/C: 4.81%
Second compound 1 µM, first compound 0.003 µM
  viability, T/C: 4.98%
Second compound 1 µM, first compound 0.00949 µM
  viability, T/C: 5.25%
Second compound 1 µM, first compound 0.03 µM
  viability, T/C: 4.25%
Second compound 1 µM, first compound 0.0949 µM
  viability, T/C: 3.86%
Second compound 1 µM, first compound 0.3 µM
  viability, T/C: 3.77%
Second compound 3.16 µM, first compound 0.000949 µM
  viability, T/C: 5.14%
Second compound 3.16 µM, first compound 0.003 µM
  viability, T/C: 4.79%
Second compound 3.16 µM, first compound 0.00949 µM
  viability, T/C: 5.19%
Second compound 3.16 µM, first compound 0.03 µM
  viability, T/C: 4.55%
Second compound 3.16 µM, first compound 0.0949 µM
  viability, T/C: 4.08%
Second compound 3.16 µM, first compound 0.3 µM
  viability, T/C: 3.79%
Second compound 10 µM, first compound 0.000949 µM
  viability, T/C: 4.89%
Second compound 10 µM, first compound 0.003 µM
  viability, T/C: 5.31%
Second compound 10 µM, first compound 0.00949 µM
  viability, T/C: 4.83%
Second compound 10 µM, first compound 0.03 µM
  viability, T/C: 4.8%
Second compound 10 µM, first compound 0.0949 µM
  viability, T/C: 4.86%
Second compound 10 µM, first compound 0.3 µM
  viability, T/C: 3.79%
